The values below come from ChEMBL document CHEMBL1146118, “Design, synthesis and biological evaluations of novel oxindoles as HIV-1 non-nucleoside reverse transcriptase inhibitors. Part I” (Bioorg Med Chem Lett, 2006).

In assay [1] the test system is Human immunodeficiency virus 1. Nature of the assay: Antiviral activity against HIV1 in HEK293T cells. The class given is functional, organism-based. The note with it: Human immunodeficiency virus 1, HEK-293T.
For another assay, the system named is HEK293. Nature of the assay: Cytotoxicity against HEK293T cells. The conditions noted are these: Homo sapiens. The class given is functional.

Take `CCOC(=O)[C@H]1C[C@]12C(=O)Nc1ccc([N+](=O)[O-])cc12`: the midpoint of the response in assay [1], the EC50, lay at 1.03 µM. Besides, in the assay with HEK293, the CC50 (as a rule, the concentration that lowers cell viability or growth by half) was more than 10 µM.
As to `O=C([C@H]1C[C@]12C(=O)Nc1ccc(Br)cc12)N1CCCCC1`, in assay [1], the EC50 (in general, the concentration giving half of the maximal effect) was determined as 0.586 µM. This molecule displayed a CC50 in the assay with HEK293 of more than 10 µM.
The molecule `CCCCCC#CC1CC12C(=O)Nc1ccc(Br)cc12` (stereo not given) showed an EC50 in assay [1] of 0.463 µM. In addition, in the assay on HEK293, the CC50 was 6.62 µM.
On the same counts, the results for `CC(C)(C)OC(=O)[C@H]1C[C@]12C(=O)Nc1ccc(Br)cc12` are 0.04 µM and more than 10 µM.
On the same counts, the results for `CCOC(=O)[C@H]1[C@@H](CC)[C@]12C(=O)Nc1ccc(Br)cc12` are 1.21 µM and more than 10 µM.
In assay [1], `O=C([C@H]1C[C@]12C(=O)Nc1ccc(Br)cc12)N1CCCC1` had an EC50 of 0.191 µM. Besides, the CC50 in the assay with HEK293 was more than 10 µM.
On to `CCOC(=O)/C=C1\C(=O)Nc2ccc(Br)cc21`, for which the EC50 in assay [1] was more than 10 µM. Further, the CC50 in the assay on HEK293 is more than 10 µM.
In assay [1], `CCOC(=O)[C@@H]1C[C@]12C(=O)Nc1ccc(Br)cc12` gave an EC50 of more than 10 µM. In addition, the CC50 in the assay on HEK293 was more than 10 µM.
Take `CCOC(=O)[C@H]1C(C)(C)[C@]12C(=O)Nc1ccc(Br)cc12`: the EC50 in assay [1] was found to be 0.015 µM. In the assay with HEK293, this molecule displayed a cytotoxic concentration (CC50) of more than 10 µM.
For `CCCCC1CC12C(=O)Nc1ccc(Br)cc12` (stereo not given) the same measures were 0.197 µM and more than 10 µM.
On the same counts, the results for `O=C(OCc1ccccc1)[C@H]1C[C@]12C(=O)Nc1ccc(Br)cc12` are 5.58 µM and more than 10 µM.
For `CCOC(=O)[C@H]1C[C@]12C(=O)Nc1c(C)cc(Cl)cc12` the same measures were 2.25 µM and more than 10 µM.
Consider `CCOC(=O)[C@H]1C[C@]12C(=O)Nc1cccc(Br)c12`, for which the EC50 in assay [1] was more than 10 µM. Besides, the CC50 in the assay with HEK293 was more than 10 µM.
In assay [1], `CCOC(=O)[C@H]1C[C@]12C(=O)Nc1ccc(-c3ccco3)cc12` gave an EC50 of 0.608 µM. Moreover, the CC50 with HEK293 came out at 2.19 µM.
On the same counts, the results for `CCOC(=O)[C@H]1C[C@]12C(=O)Nc1ccc(Cl)cc12` are 0.059 µM and more than 10 µM.
The molecule `CCOC(=O)[C@H]1C[C@]12C(=O)Nc1ccc(Br)cc12` yielded an EC50 in assay [1] of 0.066 µM. In the assay with HEK293, this molecule came in with a CC50 of more than 10 µM.
On the same counts, the results for `CCOC(=O)[C@H]1C[C@]12C(=O)Nc1ccc(C)cc12` are 1.09 µM and more than 10 µM.
For `CCOC(=O)[C@H]1C[C@]12C(=O)Nc1ccc(-c3ccccc3)cc12` the same measures were 0.126 µM and more than 10 µM.
For `COC(=O)CC1CC12C(=O)Nc1ccc(Br)cc12` (stereo not given) the same measures were more than 10 µM and more than 10 µM.
The molecule `O=C([C@H]1C[C@]12C(=O)Nc1ccc(Br)cc12)N1CCSC1` returned an EC50 in assay [1] of 0.18 µM. Moreover, in the assay with HEK293, the CC50 is more than 10 µM.
On the same counts, the results for `CCN(CC)C(=O)[C@H]1C[C@]12C(=O)Nc1ccc(Br)cc12` are 1.42 µM and more than 10 µM.
On the same counts, the results for `CCOC(=O)[C@H]1C[C@]12C(=O)Nc1ccc(N)cc12` are 2.7 µM and 1.99 µM.
Molecule `CCOC(=O)[C@H]1[C@H](CC)[C@]12C(=O)Nc1ccc(Br)cc12` came in with a concentration giving a half-maximal response (EC50) in assay [1] of 0.03 µM. In the assay with HEK293, this molecule came in with a CC50 of more than 10 µM.
For `C=Cc1ccc2c(c1)[C@@]1(C[C@@H]1C(=O)OCC)C(=O)N2` the same measures were more than 10 µM and more than 10 µM.
On to `CCOC(=O)CC1(C)C(=O)Nc2ccc(Br)cc21` (stereo not given), for which the EC50 in assay [1] was more than 10 µM. In addition, in the assay on HEK293, the CC50 was more than 10 µM.
Molecule `CCCNC(=O)[C@H]1C[C@]12C(=O)Nc1ccc(Br)cc12` showed an EC50 in assay [1] of more than 10 µM. In the assay on HEK293, this molecule showed a CC50 of more than 10 µM.
The molecule `CCOC(=O)[C@H]1C[C@]12C(=O)Nc1ccc(OC(F)(F)F)cc12` showed an EC50 in assay [1] of 2.23 µM. This molecule also yielded a CC50 in the assay on HEK293 of more than 10 µM.
On the same counts, the results for `CCOC(=O)[C@H]1C[C@]12C(S)=Nc1ccc(Br)cc12` are more than 10 µM and more than 10 µM.
For `CCOC(=O)/C=C1/C(=O)Nc2ccc(Br)cc21` the same measures were 2.28 µM and more than 10 µM.
For `CCOC(=O)[C@H]1C[C@]12C(=O)Nc1ccc(F)cc12` the same measures were 0.289 µM and more than 10 µM.
Turning to `CCOC(=O)[C@H]1C[C@]12C(=O)Nc1ccc(-c3cccn3C)cc12`, the concentration giving a half-maximal response (EC50) in assay [1] is 0.358 µM. In the assay with HEK293, this molecule yielded a half-maximal cytotoxic concentration (CC50) of 8.06 µM.
On the same counts, the results for `CCOC(=O)[C@H]1C[C@]12C(=O)Nc1ccc(-c3cccs3)cc12` are 2.65 µM and 1.94 µM.
In the assay on HEK293, `O=C1Nc2ccc(Cl)cc2[C@@](C#CC2CC2)(C(F)(F)F)O1` [EFAVIRENZ] came in with a CC50 of 10 µM.
In assay [1], `CCOC(=O)[C@H]1C[C@]12C(=O)Nc1c(Cl)cc(Cl)cc12` showed an EC50 of 7.36 µM. In the assay with HEK293, this molecule showed a CC50 of more than 10 µM.
`CCOC(=O)[C@@]1(C)C[C@]12C(=O)Nc1ccc(Br)cc12` gave an EC50 in assay [1] of 33.3 µM. The CC50 with HEK293 is more than 10 µM.
For `CC(C)OC(=O)[C@H]1C[C@]12C(=O)Nc1ccc(Br)cc12` the same measures were 0.059 µM and more than 10 µM.
For `O=C(O)[C@H]1C[C@]12C(=O)Nc1ccc(Br)cc12` the same measures were 7.63 µM and more than 10 µM.
On the same counts, the results for `Cc1ccnc2c1NC(=O)c1cccnc1N2C1CC1` [NEVIRAPINE] are 0.05 µM and more than 10 µM.
For the molecule `CCOC(=O)[C@H]1C2(CCCC2)[C@]12C(=O)Nc1ccc(Br)cc12`, the EC50 in assay [1] came to 1.46 µM. Also, the CC50 with HEK293 was more than 10 µM.
For `CCOC(=O)[C@H]1C[C@]12C(=O)Nc1ccc(C#N)cc12` the same measures were 0.066 µM and more than 10 µM.
On the same counts, the results for `CON(C)C(=O)[C@H]1C[C@]12C(=O)Nc1ccc(Br)cc12` are 0.656 µM and more than 10 µM.
For `CCCCC(=O)[C@H]1C[C@]12C(=O)Nc1ccc(Br)cc12` the same measures were 0.62 µM and more than 10 µM.
`O=C1Nc2ccc(Br)cc2C12CC2COc1ccccc1` (stereo not given) came in with an EC50 in assay [1] of 5.62 µM. The same molecule displayed a CC50 in the assay with HEK293 of more than 10 µM.
In turn, `CCOC(=O)[C@H]1C[C@]12C(=O)Nc1ccccc12` displayed an EC50 in assay [1] of 0.279 µM. In the assay on HEK293, this molecule showed a CC50 of more than 10 µM.
For `CCOC(=O)[C@H]1C(CC)(CC)[C@]12C(=O)Nc1ccc(Br)cc12` the same measures were more than 10 µM and more than 10 µM.
As to `CCOC(=O)[C@H]1C[C@]12C(=O)Nc1ccc(I)cc12`, the 50% effective concentration (EC50) in assay [1] was 0.486 µM. In the assay on HEK293, this molecule gave a CC50 of more than 10 µM.
On the same counts, the results for `CCOC(=O)[C@H]1C[C@]12C(=O)N(C)c1ccc(Br)cc12` are more than 10 µM and more than 10 µM.
The molecule `CCOC(=O)[C@H]1C[C@]12C(=O)Nc1cc(Cl)ccc12` displayed an EC50 in assay [1] of more than 10 µM. Besides, the CC50 with HEK293 was more than 10 µM.
